This assay has as its system KB. Nature of the assay: Cytotoxicity against human KB cells. It is filed as functional, cell-based.

As to `CCCCCCCCCCCC(=O)OC(C)C(OC(C)=O)C(C)C(=O)NC[C@H](O)CC(=O)OC` (some centres not stated) [GUAMAMIDE], the IC50 (as a rule, the concentration at which inhibition is half-maximal) came to 1200 nM.
In the case of `CCC[C@H](CC(=O)N[C@@H](Cc1ccccc1)C(=O)N(C)[C@@H](C(=O)N[C@H](C(=O)N(C)[C@H](C(=O)N(C)[C@@H](Cc1ccccc1)C(=O)N(C)Cc1nccs1)[C@@H](C)CC)C(C)C)C(C)C)OC` [MICROMIDE], the IC50 was 260 nM.

For the origin of these results see ChEMBL document CHEMBL1148151, “Micromide and guamamide: cytotoxic alkaloids from a species of the marine cyanobacterium Symploca” (J Nat Prod, 2004).
